Measurements published in patent US8372885B2, “Organic compounds and their uses” (Novartis AG, priority 2008, dated 2013).

What follows are molecules tested against T1, P. aeruginosa LpxC (Pseudomonas aeruginosa, UniProt P47205) (assay: biochemical). Details: 1 nM P. aeruginosa LpxC, 30 min pre-incubation, 2 μM UDP-3-O-(R-3-hydroxydecanoyl)-GlcNAc, pH 7.5, room temperature; read-out: IC50 (LpxC inhibitory activity).
T1 construct: made in house
T1 sequence (P47205 1-303): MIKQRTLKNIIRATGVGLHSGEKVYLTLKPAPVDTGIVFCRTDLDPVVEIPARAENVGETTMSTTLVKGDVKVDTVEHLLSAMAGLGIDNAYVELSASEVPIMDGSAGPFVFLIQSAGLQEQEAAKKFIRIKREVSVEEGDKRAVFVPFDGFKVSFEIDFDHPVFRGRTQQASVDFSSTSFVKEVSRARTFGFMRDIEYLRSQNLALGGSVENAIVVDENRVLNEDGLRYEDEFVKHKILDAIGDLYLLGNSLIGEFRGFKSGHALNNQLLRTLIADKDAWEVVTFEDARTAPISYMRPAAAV
Description: The LC-MS/MS method for quantitation of LpxC product was developed using an Agilent 1200 Capillary HPLC system coupled to an Applied Biosystems MDS Sciex 4000QTRAP mass spectrometer. Both instruments are controlled using the Applied Biosystems MDS Sciex Analyst software. LpxC reaction product (UDP-3-O—(R-3-hydroxyacyl)-glucosamine) was produced by hydrolysis of LpxC substrate catalyzed by P. a. LpxC and purified using reversed phase chromatography on a Phenomenex Luna C18(2) 4.6×50 mm column. An LpxC product calibration curve was generated to evaluate the sensitivity and dynamic range of the LC-MS/MS method. Briefly, compounds are pre-incubated with 1 nM P. aeruginosa LpxC for 30 min. at room temperature. Reactions are initiated by the addition of 2 μM UDP-3-O—(R-3-hydroxydecanoyl)-GlcNAc. Reactions are conducted in a 96-well plate with a total volume of 100 μL in each well containing 50 mM Sodium phosphate pH 7.5, 0.005% Trition X-100 for 20 min at room temperature. After quenching with 1.8% HOAc (10 μL of a 20% HOAc added to each well), reaction mixtures are analyzed using the LC-MS/MS method and peak areas are transformed into product concentration using a LpxC product calibration curve. […] For IC50 determinations, peak areas are converted to percent inhibition in Microsoft Excel. Percent inhibition values are plotted vs. log compound concentration using XLfit. Data is fit to the four-parameter logistic equation using the non-linear regression algorithm in XLfit to return the IC50 and hill slope values.

SMILES	IC50
C[C@@H](N)[C@H](NC(=O)c1ccc(OCC#CC2CC2)cc1)C(=O)NO [Example 34]	6 nM
CC#CCOC1CCC(C(=O)N[C@H](C(=O)NO)[C@@H](C)N)CC1 (single isomer, unassigned) [Example 7]	380 nM
CC#CCOc1c(Cl)cc(C(=O)NC(C(=O)NO)C(C)(C)N)cc1Cl (centres unmarked) [Example 40]	34.6 nM
CC(C)(N)[C@H](NC(=O)c1ccc(OC/C=C/C#CCCO)cc1)C(=O)NO [Example 15, N-((S)-2-Amino-1-hydroxycarbamoyl-2-methyl-propyl)-4-((E)-7-hydroxy-hept-2-en-4-ynyloxy)-benzamide]	2 nM
CCCC#CCOc1ccc(C(=O)N[C@H](C(=O)NO)[C@@H](C)N)cc1 [Example 23]	1.5 nM
C=C(C)C#CCOc1ccc(C(=O)N[C@H](C(=O)NO)C(C)(C)N)cc1 [Example 43]	1 nM
C#CCOc1ccc(C(=O)N[C@H](C(=O)NO)[C@@H](C)N)cc1 [Example 29]	38.9 nM
CC(C)(C)C#CCOc1ccc(C(=O)NC(C(=O)NO)C(C)(C)N)cc1 (centres unmarked) [Example 4, N-(3-amino-1-(hydroxyamino)-3-methyl-1-oxobutan-2-yl)-4-(4,4-dimethylpent-2-ynyloxy)benzamide]	23 nM
CC#CCNc1ccc(C(=O)N[C@H](C(=O)NO)[C@@H](C)N)cc1 [Example 42]	27.3 nM
C[C@@H](N)[C@H](NC(=O)c1ccc(C#CCOc2ccccc2)cc1)C(=O)NO [Example 18]	7.6 nM
C[C@@H](N)[C@H](NC(=O)c1ccc(OCCCC#Cc2ccccc2)cc1)C(=O)NO [Example 30]	35.6 nM
CC#CCOc1ccc(C(=O)N[C@H](C(=O)NO)C(C)(C)O)cc1 [Example 20]	6.5 nM
CC#CC(C)Oc1ccc(C(=O)N[C@H](C(=O)NO)[C@@H](C)N)cc1 (some centres unmarked) [Example 32]	231 nM
CCCCOc1ccc(C(=O)N[C@H](C(=O)NO)C(C)(C)N)cc1 [Example 37]	4 nM
C[C@@H](N)[C@H](NC(=O)c1ccc(OCC#Cc2ccccc2)cc1)C(=O)NO [Example 17]	1 nM
CC#CCOc1ccc(C(=O)NC(C(=O)NO)C(C)(C)N)cc1OC (centres unmarked) [Example 39]	151 nM

SMILES	IC50
CCC#CCOc1ccc(C(=O)NC(C(=O)NO)C(C)(C)N)cc1 (centres unmarked) [Example 21]	1 nM
CC(C)(N)[C@H](NC(=O)c1ccc(OCC#CC2=CCOCC2)cc1)C(=O)NO [Example 12, N-((S)-2-Amino-1-hydroxycarbamoyl-2-methyl-propyl)-4-[3-(3,6-dihydro-2H-pyran-4-yl)-prop-2-ynyloxy]-benzamide]	2 nM
CC#CCOc1ccc(C(=O)N[C@H](C(=O)NO)[C@@H](C)N)c(F)c1 [Example 9, N-((1S,2R)-2-Amino-1-hydroxycarbamoyl-propyl)-4-but-2-ynyloxy-2-fluoro-benzamide]	74.5 nM
CCC#CCOc1ccc(C(=O)N[C@H](C(=O)NO)[C@@H](C)N)cc1 [Example 19]	7.6 nM
C=C/C=C/COc1ccc(C(=O)NC(C(=O)NO)C(C)(C)N)cc1 (centres unmarked) [Example 41]	2.1 nM
CC#CCOc1ccc(-c2ccc(C(=O)N[C@H](C(=O)NO)C(C)(C)N)cc2)cc1 [Example 22]	0.7 nM
CC(C)(N)[C@H](NC(=O)c1ccc(OCC#CC2=CCCC2)cc1)C(=O)NO [Example 11, N-((S)-2-Amino-1-hydroxycarbamoyl-2-methyl-propyl)-4-(3-cyclopent-1-enyl-prop-2-ynyloxy)-benzamide]	1 nM
C#CC(C)(C)Oc1ccc(C(=O)NC(C(=O)NO)C(C)(C)N)cc1 (centres unmarked) [Example 24]	1.4 nM
CCCCCC#CCNc1ccc(C(=O)N[C@@H](CN)C(=O)NO)cn1 [Example 28]	55.7 nM
COCC#CCOc1ccc(C(=O)N[C@H](C(=O)NO)[C@@H](C)N)cc1 [Example 44]	56.9 nM
C#C/C=C/COc1ccc(C(=O)N[C@H](C(=O)NO)[C@@H](C)N)cc1 [Example 46]	5.5 nM
CC#CC(C)(C)Oc1ccc(C(=O)N[C@H](C(=O)NO)[C@@H](C)N)cc1 [Example 27]	73.3 nM
CC(C)=CCOc1ccc(C(=O)NC(C(=O)NO)C(C)(C)N)cc1 (centres unmarked) [Example 47]	3.7 nM
CC#CCOc1ccc(C(=O)N[C@@H](CCCN)C(=O)NO)cc1 [Example 10, N-((S)-4-Amino-1-hydroxycarbamoyl-butyl)-4-but-2-ynyloxy-benzamide]	2700 nM
CC(C)(N)[C@H](NC(=O)c1ccc(OCC#CC2CC2)cc1)C(=O)NO [Example 38]	0.4 nM

The next lines start with the values.

IC50	SMILES
1 nM	CC(C)(N)[C@H](NC(=O)c1ccc(OCC#Cc2ccccc2)cc1)C(=O)NO [Example 80]
16.7 nM	CC#CCOc1ccc(C(=O)NC(C(=O)NO)C(C)(C)N)cc1C (centres unmarked) [Example 54]
18 nM	CC(C)(N)[C@H](NC(=O)c1ccc(OCC2CC2)cc1)C(=O)NO [Example 82]
1 nM	CC(C)(N)[C@H](NC(=O)c1ccc(OCC#Cc2ccccn2)cc1)C(=O)NO [Example 79]
4.4 nM	CC#CCSc1ccc(C(=O)NC(C(=O)NO)C(C)(C)N)cc1 (centres unmarked) [Example 52]
10 nM	CC(C)(N)[C@H](NC(=O)c1ccc(OCC#Cc2cccnc2)cc1)C(=O)NO [Example 78]
8 nM	CC(C)(N)[C@H](NC(=O)c1ccc(OCCC2CC2)cc1)C(=O)NO [Example 83]
0.2 nM	CC(C)(N)[C@H](NC(=O)c1ccc(OCC#Cc2cccc(CO)c2)cc1)C(=O)NO [Example 77]
0.05 nM	CC(C)(C)C#C/C=C/COc1ccc(C(=O)N[C@H](C(=O)NO)C(C)(C)N)cc1 [Example 63]
0.03 nM	CC(C)(N)[C@H](NC(=O)c1ccc(OCC#CC2CCC2)cc1)C(=O)NO [Example 81]
13.1 nM	C[C@@H](N)[C@H](NC(=O)c1ccc(OCCCC2CC2)cc1)C(=O)NO [Example 50]
2 nM	COc1cccc(C#CCOc2ccc(C(=O)N[C@H](C(=O)NO)C(C)(C)N)cc2)c1 [Example 70]
6 nM	CC(C)(N)[C@H](NC(=O)c1ccc(OCC#CC2=CCC(N)CC2)cc1)C(=O)NO (some centres unmarked) [Example 75]
30 nM	C/C=C/COc1ccc(C(=O)N[C@H](C(=O)NO)[C@@H](C)N)cc1 [Example 57]
24.6 nM	C[C@@H](N)[C@H](NC(=O)c1ccc(OCCC2CC2)cc1)C(=O)NO [Example 49]
5.5 nM	CC(C)C#CCOc1ccc(C(=O)N[C@H](C(=O)NO)C(C)(C)N)cc1 [Example 53]
1900 nM	CC(C)(N)[C@H](NC(=O)c1ccc(OCC#Cc2ccc(O)cc2)cc1)C(=O)NO [Example 68]
1 nM	COCC#C/C=C/COc1ccc(C(=O)N[C@H](C(=O)NO)C(C)(C)N)cc1 [Example 71]
1 nM	CC(C)(N)[C@H](NC(=O)c1ccc(OC/C=C/C#CCO)cc1)C(=O)NO [Example 72]
8 nM	CC(C)=CC#CCOc1ccc(C(=O)N[C@H](C(=O)NO)[C@@H](C)N)cc1 [Example 60]
3 nM	CC#CCOc1ccc(C(=O)N[C@H](C(=O)NO)C(C)(C)N)c(O)c1 [Example 74]
413 nM	COc1ccc(C#CCOc2ccc(C(=O)N[C@H](C(=O)NO)C(C)(C)N)cc2)cc1 [Example 69]
0.03 nM	CC(C)(N)[C@H](NC(=O)c1ccc(OCC#CC2=CCC(O)CC2)cc1)C(=O)NO (some centres unmarked) [Example 76]
9.9 nM	CC#CCOc1ccc(C(=O)NC(C(=O)NO)C(C)(C)N)cc1Cl (centres unmarked) [Example 55]
128 nM	CC#CCOc1ccc(C(=O)N[C@@H](CN)C(=O)NO)cc1 [Example 51]
14 nM	CC(C)(N)[C@H](NC(=O)c1ccc(OCC#CC2=CCNCC2)cc1)C(=O)NO [Example 62]
3 nM	C[C@@H](N)[C@H](NC(=O)c1ccc(OCC#Cc2ccoc2)cc1)C(=O)NO [Example 61]
10.2 nM	CC(C)=CCC/C(C)=C/COc1ccc(C(=O)N[C@H](C(=O)NO)[C@@H](C)N)cc1 [Example 48]

Same assay, conditions: IC50 (LpxC inhibitory activity), 1 nM P. aeruginosa LpxC, 30 min pre-incubation, 2 μM UDP-3-O-(R-3-hydroxydecanoyl)-GlcNAc, pH 7.5, room temperature

SMILES	IC50
CC#CCOc1ccc(C(=O)N[C@H](C(=O)NO)[C@@H](N)C(F)(F)F)cc1 [Example 6, N-((2S,3R)-3-amino-4,4,4-trifluoro-1-(hydroxyamino)-1-oxobutan-2-yl)-4-(but-2-ynyloxy)benzamide]	13.5 nM
CC#CCOc1ccc(C(=O)N[C@H](C(=O)NO)[C@H](N)C(C)C)cc1 [Example 33]	268 nM
CC#CCOc1ccc(C(=O)N[C@H](C(=O)NO)[C@@H](C)N)cc1 [Example 16]	8.7 nM
